From patent publication US7022311B1, “Powdery inhalational preparations and process for producing the same” (Kaken Pharmaceutical Co., Ltd., priority 1999, dated 2006)
Peptide text beside a SMILES is read from it.

Experiment: Moisture absorption test (hygroscopic properties) of test carriers
Assay type: physicochemical
Conditions: for % Moisture Absorption: 25° C.; for Hygroscopicity, result in words: moisture absorption tests, comparison of carriers
Procedure: For the objective of selecting a material suitable as the carrier for a dry powder inhalation, moisture absorption tests were performed on erythritol, xylitol, lactose, D-mannitol, Amalty, glucose, Stevia, Benecoat and aspartame. […] (Tables 1, 2, and 3)
In order to ascertain that trehalose is a material having properties suitable as a carrier for dry powder inhalations, it was compared to lactose, a well-known carrier for dry powder inhalation. A test was carried out for comparing hygroscopicity. The trehalose used was the product of Asahi Kasei Kogyo KK, and Lactose 325M from the DMV Company. […] (Table 4, 5)

[1] = Table 2, Humidity 75%, 24 Hours
[2] = Table 2, Humidity 75%, 48 Hours
[3] = Table 2, Humidity 75%, 72 Hours
[4] = Table 2, Humidity 75%, 168 Hours
[5] = Table 3, Humidity 90%, 16 Hours
[6] = Table 3, Humidity 90%, 24 Hours
[7] = Table 3, Humidity 90%, 48 Hours
[8] = Table 3, Humidity 90%, 72 Hours
[9] = Table 3, Humidity 90%, 168 Hours
[10] = Table 1, Humidity 60%, 24 Hours
[11] = Table 1, Humidity 60%, 72 Hours
[12] = Table 1, Humidity 60%, 168 Hours
[13] = Table 1, Humidity 60%, 366 Hours
[14] = Table 2, Humidity 75%, 336 Hours
[15] = Table 4, Humidity 60%, 24 Hours
[16] = Table 4, Humidity 60%, 72 Hours
[17] = Table 4, Humidity 60%, 168 Hours
[18] = Table 4, Humidity 60%, 366 Hours
[19] = Table 5, Humidity 75%, 48 Hours
[20] = Table 5, Humidity 75%, 72 Hours
[21] = Table 5, Humidity 75%, 168 Hours

SMILES | % Moisture Absorption [1] [%] | % Moisture Absorption [2] [%] | % Moisture Absorption [3] [%] | % Moisture Absorption [4] [%] | % Moisture Absorption [5] [%] | % Moisture Absorption [6] [%] | % Moisture Absorption [7] [%] | % Moisture Absorption [8] [%] | % Moisture Absorption [9] [%] | % Moisture Absorption [10] [%] | % Moisture Absorption [11] [%] | % Moisture Absorption [12] [%] | % Moisture Absorption [13] [%] | % Moisture Absorption [14] [%] | Hygroscopicity, result in words | % Moisture Absorption [15] [%] | % Moisture Absorption [16] [%] | % Moisture Absorption [17] [%] | % Moisture Absorption [18] [%] | % Moisture Absorption [19] [%] | also measured
OC[C@@H](O)[C@@H](O[C@H]1O[C@H](CO)[C@@H](O)[C@H](O)[C@H]1O)[C@H](O)[C@@H](O)CO [Amalty] | 0.478 | 1.138 | 1.171 | 1.252 | 0.775 | 0.971 | 2.513 | 3.373 | 8.391 | – | – | – | – | – | – | – | – | – | – | – | –
COC(=O)[C@H](Cc1ccccc1)NC(=O)[C@@H](N)CC(=O)O [Aspartame] (H-Asp-Phe-OMe) | 6.539 | 10.877 | 10.985 | 11.163 | 10.476 | 10.741 | 11.448 | 11.521 | 11.749 | – | – | – | – | – | – | – | – | – | – | – | –
OC[C@@H](O)[C@@H](O)[C@H](O)[C@H](O)CO [D-Mannitol] | 0.019 | 0.019 | 0.019 | 0.028 | 0.539 | 0.672 | 0.806 | 0.916 | 1.122 | – | – | – | – | – | – | – | – | – | – | – | –
OC[C@@H](O)[C@@H](O)CO [Erythritol] | 0.008 | 0.011 | 0.014 | 0.010 | – | 0.055 | 0.070 | 0.070 | 0.070 | 0.000 | 0.000 | 0.000 | 0.000 | 0.012 | least hygroscopic | – | – | – | – | – | –
OC[C@H]1O[C@@H](O[C@H]2[C@H](O)[C@@H](O)C(O)O[C@@H]2CO)[C@H](O)[C@@H](O)[C@H]1O (some centres unmarked) [Lactose 325M, Lactose] | 0.029 | – | 0.031 | 0.033 | – | 0.094 | – | 0.090 | 0.092 | 0.000 | 0.000 | 0.000 | 0.000 | 0.031 | – | 0.000 | 0.000 | 0.000 | 0.000 | 0.031 | % Moisture Absorption (Table 5, Humidity 75%, 16 Hours): 0.029%; % Moisture Absorption [20]: 0.033%; % Moisture Absorption [21]: 0.031%
OC[C@H]1O[C@H](O[C@H]2O[C@H](CO)[C@@H](O)[C@H](O)[C@H]2O)[C@H](O)[C@@H](O)[C@@H]1O [Trehalose] | – | – | – | – | – | – | – | – | – | – | – | – | – | – | only slightly hygroscopic | 0.000 | 0.000 | 0.000 | 0.000 | 0.008 | % Moisture Absorption [20]: 0.023%; % Moisture Absorption [21]: 0.020%
